Laboratory results: patent US10538681B2, “Aqueous ink for ink jet recording” (Seiko Epson Corporation, priority 2017, dated 2020)

experiment: water-octanol distribution coefficient (log P value); assay type: physicochemical; settings: octanol/water; value defined by OECD Test Guideline 107
Text: The higher the log P value, the higher the hydrophobicity, and the lower the log P value, the higher the hydrophilicity.

logP | SMILES
0.64 | CC(C)CCOCC(O)CO (stereo not drawn) [3-isopentyloxy-1,2 propanediol]
4.18 | CC(C)CCC(C)(O)C#CC(C)(O)CCC(C)C (stereo not drawn) [Surfynol DF 110 D, 2,5,8,11-tetramethyl-6-dodecyne-5,8-diol]
-0.12 | C=C(C)C(=O)OCC(O)CO (stereo not drawn) [glycerin 1-methacrylate]

same assay, conditions: value defined by OECD Test Guideline 107

SMILES | water-octanol distribution coefficient (log P)
CCCC(=O)OCC(O)COC(=O)CCC [1,3-dibutyrin] | 1.59
CCCCC(CC)C(=O)OCC(O)CO (stereo not drawn) [2-ethylhexanoate 2,3-dihydroxypropyl] | 1.73
CCCCCCCC(O)CCCC(=O)OCC(O)CO (stereo not drawn) [5-hydroxydodecanoate 2,3-dihydroxypropyl] | 2.15
CCCCCC(=O)OCC(O)CO (stereo not drawn) [α-monocaproin] | 0.85

The remaining lines, values ahead:

water-octanol distribution coefficient (log P) | SMILES
0.7 | CCCCC(O)CO (stereo not drawn) [1,2-hexanediol]
−0.21 | CCCC(=O)OCC(O)CO (stereo not drawn) [Example 1-butyrine, 1-butyrine]
